Results taken from the NIST ThermoML archive (doi:10.1021/je4010678).

Experiment: xn = mol fraction of the nth substance listed
Conditions: 101 kPa, Liquid, Scientific instruments device model 9700

[I-].[K+] [potassium iodide] + C[S+](C)[O-]
electrical conductivity [S/m]
Conditions | 309.15 K | 311.15 K | 313.15 K | 315.15 K | 317.15 K | 319.15 K | 321.15 K | 323.15 K
x1 = 0.0001281 | 0.0079 | 0.00818 | 0.00848 | 0.00879 | 0.00918 | 0.00954 | 0.01 | 0.0104
x1 = 0.0001586 | 0.00954 | 0.00991 | 0.0103 | 0.0107 | 0.011 | 0.0114 | 0.0118 | 0.0122
x1 = 0.0003312 | 0.0198 | 0.0205 | 0.0212 | 0.022 | 0.0227 | 0.0236 | 0.0245 | 0.0254
x1 = 0.0006135 | 0.0364 | 0.0376 | 0.0389 | 0.0401 | 0.0413 | 0.0424 | 0.0436 | 0.0447
x1 = 0.001095 | 0.0603 | 0.0621 | 0.064 | 0.0658 | 0.0676 | 0.0694 | 0.0712 | 0.0729
x1 = 0.002002 | 0.103 | 0.106 | 0.11 | 0.113 | 0.116 | 0.119 | 0.122 | 0.125
x1 = 0.005707 | 0.243 | 0.251 | 0.258 | 0.266 | 0.274 | 0.281 | 0.289 | 0.296
x1 = 0.01 | 0.465 | 0.48 | 0.494 | 0.508 | 0.522 | 0.536 | 0.549 | 0.563
x1 = 0.0197 | 0.823 | 0.849 | 0.874 | 0.9 | 0.922 | 0.945 | 0.968 | 0.988
x1 = 0.04 | 1.124 | 1.161 | 1.195 | 1.233 | 1.271 | 1.309 | 1.344 | 1.386
x1 = 0.0499 | 1.246 | 1.282 | 1.319 | 1.366 | 1.39 | 1.434 | 1.466 | 1.523
x1 = 0.0707 | 1.286 | 1.342 | 1.374 | 1.408 | 1.469 | 1.527 | 1.567 | 1.607
